From PubChem BioAssay (NCI)
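Where inhibition never reached the appropriate level, the endpoint shown equals the highest concentration tested. Otherwise, values were interpolated linearly from a five-concentration, 48-hour dose response in 96-well plates. TGI is the concentration that stops growth completely.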

What was measured:
Assay in all cases: NCI tumour cell line growth inhibition, 48 h
HOP-92 NSCLC = test system: HOP-92 NSCLC
CCRF-CEM leukemia = test system: CCRF-CEM leukemia
UO-31 renal = test system: UO-31 renal
OVCAR-5 ovarian = test system: OVCAR-5 ovarian
K-562 leukemia = test system: K-562 leukemia
MDA-MB-231 breast = test system: MDA-MB-231 breast
SF-295 CNS = test system: SF-295 CNS
RXF 393 renal = test system: RXF 393 renal
NCI-H522 lung = test system: NCI-H522 lung
SK-OV-3 ovarian = test system: SK-OV-3 ovarian
NCI-H23 lung = test system: NCI-H23 lung
A498 renal = test system: A498 renal
NCI-H226 lung = test system: NCI-H226 lung
NCI-H460 lung = test system: NCI-H460 lung
OVCAR-8 ovarian = test system: OVCAR-8 ovarian
ACHN renal = test system: ACHN renal
SK-MEL-2 melanoma = test system: SK-MEL-2 melanoma
NCI/ADR-RES ovarian = test system: NCI/ADR-RES ovarian
HOP-62 NSCLC = test system: HOP-62 NSCLC
SNB-75 CNS = test system: SNB-75 CNS
786-0 renal = test system: 786-0 renal
SNB-19 CNS = test system: SNB-19 CNS
U251 CNS = test system: U251 CNS
OVCAR-4 ovarian = test system: OVCAR-4 ovarian
HT29 colon = test system: HT29 colon
HL-60(TB) leukemia = test system: HL-60(TB) leukemia
MCF7 breast = test system: MCF7 breast
SK-MEL-28 melanoma = test system: SK-MEL-28 melanoma
HCT-15 colon = test system: HCT-15 colon
LOX IMVI melanoma = test system: LOX IMVI melanoma
MOLT-4 leukemia = test system: MOLT-4 leukemia
OVCAR-3 ovarian = test system: OVCAR-3 ovarian
COLO 205 colon = test system: COLO 205 colon
MALME-3M melanoma = test system: MALME-3M melanoma
EKVX NSCLC = test system: EKVX NSCLC
T-47D breast = test system: T-47D breast
UACC-62 melanoma = test system: UACC-62 melanoma
SW-620 colon = test system: SW-620 colon
HCC-2998 colon = test system: HCC-2998 colon
HS 578T breast = test system: HS 578T breast
TK-10 renal = test system: TK-10 renal
UACC-257 melanoma = test system: UACC-257 melanoma
MDA-MB-435 = test system: MDA-MB-435
BT-549 breast = test system: BT-549 breast
DU-145 prostate = test system: DU-145 prostate
SR leukemia = test system: SR leukemia
MDA-N = test system: MDA-N
CAKI-1 renal = test system: CAKI-1 renal
M14 melanoma = test system: M14 melanoma
SF-539 CNS = test system: SF-539 CNS
SF-268 CNS = test system: SF-268 CNS
IGROV1 ovarian = test system: IGROV1 ovarian
HCT-116 colon = test system: HCT-116 colon
SK-MEL-5 melanoma = test system: SK-MEL-5 melanoma
A549 NSCLC = test system: A549 NSCLC
SN12C renal = test system: SN12C renal
RPMI-8226 leukemia = test system: RPMI-8226 leukemia
KM12 colon = test system: KM12 colon
PC-3 prostate = test system: PC-3 prostate

COc1cc(-c2cc(=O)c3c(OC)c(OC)c(OC)c(OC)c3o2)cc(OC)c1OC
TGI (HOP-92 NSCLC): 86.6 µM
TGI (CCRF-CEM leukemia): > 100 µM
TGI (UO-31 renal): > 100 µM
TGI (OVCAR-5 ovarian): > 100 µM
TGI (K-562 leukemia): > 100 µM
TGI (MDA-MB-231 breast): > 100 µM
TGI (SF-295 CNS): > 100 µM
TGI (RXF 393 renal): > 100 µM
TGI (NCI-H522 lung): 51.1 µM
TGI (SK-OV-3 ovarian): > 100 µM
TGI (NCI-H23 lung): > 100 µM
TGI (A498 renal): 85.2 µM
TGI (NCI-H226 lung): > 100 µM
TGI (NCI-H460 lung): > 100 µM
TGI (OVCAR-8 ovarian): > 100 µM
TGI (ACHN renal): > 100 µM
TGI (SK-MEL-2 melanoma): > 100 µM
TGI (NCI/ADR-RES ovarian): 84 µM
TGI (HOP-62 NSCLC): > 100 µM
TGI (SNB-75 CNS): > 100 µM
TGI (786-0 renal): > 100 µM
TGI (SNB-19 CNS): > 100 µM
TGI (U251 CNS): > 100 µM
TGI (OVCAR-4 ovarian): > 100 µM
TGI (HT29 colon): > 100 µM
TGI (HL-60(TB) leukemia): 67.5 µM
TGI (MCF7 breast): > 100 µM
TGI (SK-MEL-28 melanoma): > 100 µM
TGI (HCT-15 colon): > 100 µM
TGI (LOX IMVI melanoma): 83.1 µM
TGI (MOLT-4 leukemia): > 100 µM
TGI (OVCAR-3 ovarian): > 100 µM
TGI (COLO 205 colon): 40 µM
TGI (MALME-3M melanoma): > 100 µM
TGI (EKVX NSCLC): > 100 µM
TGI (T-47D breast): 70.5 µM
TGI (UACC-62 melanoma): 89.5 µM
TGI (SW-620 colon): > 100 µM
TGI (HCC-2998 colon): > 100 µM
TGI (HS 578T breast): > 100 µM
TGI (TK-10 renal): > 100 µM
TGI (UACC-257 melanoma): > 100 µM
TGI (MDA-MB-435): > 100 µM
TGI (BT-549 breast): > 100 µM
TGI (DU-145 prostate): > 100 µM
TGI (SR leukemia): > 100 µM
TGI (MDA-N): > 100 µM
TGI (CAKI-1 renal): > 100 µM
TGI (M14 melanoma): > 100 µM
TGI (SF-539 CNS): > 100 µM
TGI (SF-268 CNS): > 100 µM
TGI (IGROV1 ovarian): > 100 µM
TGI (HCT-116 colon): > 100 µM
TGI (SK-MEL-5 melanoma): 39.5 µM
TGI (A549 NSCLC): > 100 µM
TGI (SN12C renal): > 100 µM
TGI (RPMI-8226 leukemia): > 100 µM

CC(C)(C)OC(=O)N1CCCC1=O
TGI (HOP-92 NSCLC): > 10 µM
TGI (CCRF-CEM leukemia): > 10 µM
TGI (UO-31 renal): > 10 µM
TGI (OVCAR-5 ovarian): > 10 µM
TGI (K-562 leukemia): > 10 µM
TGI (MDA-MB-231 breast): > 10 µM
TGI (SF-295 CNS): > 10 µM
TGI (RXF 393 renal): > 10 µM
TGI (SK-OV-3 ovarian): > 10 µM
TGI (NCI-H23 lung): > 10 µM
TGI (A498 renal): > 10 µM
TGI (NCI-H226 lung): > 10 µM
TGI (NCI-H460 lung): > 10 µM
TGI (OVCAR-8 ovarian): > 10 µM
TGI (ACHN renal): > 10 µM
TGI (SK-MEL-2 melanoma): > 10 µM
TGI (HOP-62 NSCLC): > 10 µM
TGI (SNB-75 CNS): > 10 µM
TGI (786-0 renal): > 10 µM
TGI (SNB-19 CNS): > 10 µM
TGI (U251 CNS): > 10 µM
TGI (HT29 colon): > 10 µM
TGI (HL-60(TB) leukemia): > 10 µM
TGI (MCF7 breast): > 10 µM
TGI (SK-MEL-28 melanoma): > 10 µM
TGI (HCT-15 colon): > 10 µM
TGI (LOX IMVI melanoma): > 10 µM
TGI (MOLT-4 leukemia): > 10 µM
TGI (OVCAR-3 ovarian): > 10 µM
TGI (MALME-3M melanoma): > 10 µM
TGI (KM12 colon): > 10 µM
TGI (EKVX NSCLC): > 10 µM
TGI (T-47D breast): > 10 µM
TGI (UACC-62 melanoma): > 10 µM
TGI (SW-620 colon): > 10 µM
TGI (HCC-2998 colon): > 10 µM
TGI (HS 578T breast): > 10 µM
TGI (PC-3 prostate): > 10 µM
TGI (TK-10 renal): > 10 µM
TGI (UACC-257 melanoma): > 10 µM
TGI (MDA-MB-435): > 10 µM
TGI (BT-549 breast): > 10 µM
TGI (DU-145 prostate): > 10 µM
TGI (SR leukemia): > 10 µM
TGI (MDA-N): > 10 µM
TGI (M14 melanoma): > 10 µM
TGI (SF-539 CNS): > 10 µM
TGI (SF-268 CNS): > 10 µM
TGI (IGROV1 ovarian): > 10 µM
TGI (HCT-116 colon): > 10 µM
TGI (SK-MEL-5 melanoma): > 10 µM
TGI (A549 NSCLC): > 10 µM
TGI (SN12C renal): > 10 µM
TGI (RPMI-8226 leukemia): > 10 µM

COc1cccc2c(Nc3ccc(S(=O)(=O)Nc4ncccn4)cc3)c3ccc([N+](=O)[O-])cc3nc12
TGI (HOP-92 NSCLC): > 100 µM
TGI (CCRF-CEM leukemia): > 100 µM
TGI (UO-31 renal): > 100 µM
TGI (OVCAR-5 ovarian): > 100 µM
TGI (K-562 leukemia): > 100 µM
TGI (MDA-MB-231 breast): > 100 µM
TGI (SF-295 CNS): > 100 µM
TGI (RXF 393 renal): > 100 µM
TGI (NCI-H522 lung): > 100 µM
TGI (SK-OV-3 ovarian): > 100 µM
TGI (NCI-H23 lung): > 100 µM
TGI (A498 renal): > 100 µM
TGI (NCI-H226 lung): > 100 µM
TGI (NCI-H460 lung): > 100 µM
TGI (ACHN renal): > 100 µM
TGI (SK-MEL-2 melanoma): > 100 µM
TGI (HOP-62 NSCLC): > 100 µM
TGI (786-0 renal): > 100 µM
TGI (SNB-19 CNS): > 100 µM
TGI (U251 CNS): > 100 µM
TGI (OVCAR-4 ovarian): > 100 µM
TGI (HT29 colon): > 100 µM
TGI (HL-60(TB) leukemia): 88.6 µM
TGI (MCF7 breast): > 100 µM
TGI (SK-MEL-28 melanoma): > 100 µM
TGI (HCT-15 colon): > 100 µM
TGI (LOX IMVI melanoma): > 100 µM
TGI (MOLT-4 leukemia): 81.2 µM
TGI (OVCAR-3 ovarian): > 100 µM
TGI (COLO 205 colon): > 100 µM
TGI (MALME-3M melanoma): > 100 µM
TGI (KM12 colon): > 100 µM
TGI (EKVX NSCLC): > 100 µM
TGI (T-47D breast): > 100 µM
TGI (UACC-62 melanoma): > 100 µM
TGI (SW-620 colon): > 100 µM
TGI (HCC-2998 colon): > 100 µM
TGI (HS 578T breast): > 100 µM
TGI (PC-3 prostate): > 100 µM
TGI (TK-10 renal): > 100 µM
TGI (UACC-257 melanoma): > 100 µM
TGI (MDA-MB-435): > 100 µM
TGI (BT-549 breast): > 100 µM
TGI (DU-145 prostate): > 100 µM
TGI (SR leukemia): 13.9 µM
TGI (MDA-N): > 100 µM
TGI (CAKI-1 renal): > 100 µM
TGI (M14 melanoma): > 100 µM
TGI (SF-539 CNS): > 100 µM
TGI (SF-268 CNS): > 100 µM
TGI (IGROV1 ovarian): > 100 µM
TGI (HCT-116 colon): > 100 µM
TGI (SK-MEL-5 melanoma): > 100 µM
TGI (A549 NSCLC): > 100 µM
TGI (SN12C renal): > 100 µM
TGI (RPMI-8226 leukemia): > 100 µM
